The record followed here is patent publication US7868188B2, “5-heteroaryl thiazoles and their use as PI3K inhibitors” (AstraZeneca AB, priority 2004, dated 2011).

Assay [1] deals with phosphorylation of Serine 473 in Akt (MDA-MB-468 cells). The assay can be described thus: Test (c) In Vitro phospho-Ser473 Akt Assay. To be noted: Homo sapiens, read-out: IC50 versus Serine 473 in Akt. The assay is classed as cell-based. The protocol:
This assay determines the ability of test compounds to inhibit phosphorylation of Serine 473 in Akt as assessed using Acumen Explorer technology (Acumen Bioscience Limited), a plate reader that can be used to rapidly quantitate features of images generated by laser-scanning.
A MDA-MB-468 human breast adenocarcinoma cell line (LGC Promochem, Teddington, Middlesex, UK, Catalogue No. HTB-132) was routinely maintained at 37° C. with 5% CO2 up to a confluency of 70-90% in DMEM containing 10% heat-inactivated FCS and 1% L-glutamine.
For the assay, the cells were detached from the culture flask using ‘Accutase’ (Innovative Cell Technologies Inc., San Diego, Calif., USA; Catalogue No. AT104) using standard tissue culture methods and resuspended in media to give 1.7×10^5 cells per ml. Aliquots (90 μl) were seeded into each of the inner 60 wells of a black Packard 96 well plate (PerkinElmer, Boston, Mass., USA; Catalogue No. 6005182) to give a density of ˜15000 cells per well. Aliquots (90 μl) of culture media were placed in the outer wells to prevent edge effects. The cells were incubated overnight at 37° C. with 5% CO2 to allow them to adhere.
On day 2, the cells were treated with test compounds and incubated for 2 hours at 37° C. with 5% CO2. Test compounds were prepared as 10 mM stock solutions in DMSO and serially diluted as required with growth media to give a range of concentrations that were 10-fold the required final test concentrations. Aliquots (10 μl) of each compound dilution were placed in a well (in triplicate) to give the final required concentrations. As a minimum response control, each plate contained wells having a final concentration of 100 μM LY294002 (Calbiochem, Beeston, UK, Catalogue No. 440202). As a maximum response control, wells contained 1% DMSO instead of test compound. Following incubation, the contents of the plates were […] by treatment with a 1.6% aqueous formaldehyde solution (Sigma, Poole, Dorset, UK, Catalogue No. F1635) at room temperature for 1 hour.
All subsequent aspiration and wash steps were carried out using a Tecan 96 well late washer (aspiration speed 10 mm/sec). The fixing solution was removed and the contents of the plates were washed with phosphate-buffered saline (PBS; 50 μl; Gibco, Catalogue No. 10010015). The contents of the plates were treated for 10 minutes at room temperature with an aliquot (50 μl) of a cell permeabilisation buffer consisting of a mixture of PBS and 0.5% Tween-20. […] An aliquot of PBS (50 μl) was added to each well and the plates were sealed with black plate sealers and the fluorescence signal was detected and analysed.
Fluorescence dose response data obtained with each compound were analysed and the degree of inhibition of Serine 473 in Akt was expressed as an IC50 value.

The target in another assay is T1, p110α Type Ia human PI3K (Homo sapiens, UniProt P42336).
T1 construct: full length DNA of each of the p110α, p110β and p110δ Type Ia human PI3K p110 isoforms; 6-His; made in house; host or cells: baculovirus expression system (Sf9 is named only for PI3Kγ)
Nature of the assay: Test (a) In Vitro PI3K Enzyme Assay (AlphaScreen). The assay is classed as biochemical. The settings on record: read-out: IC50 versus p110α PI3K. An excerpt: The assay used AlphaScreen technology (Gray et al., Analytical Biochemistry, 2003, 313: 234-245) to determine the ability of test compounds to inhibit phosphorylation by recombinant Type I PI3K enzymes of the lipid PI(4,5)P2.
DNA fragments encoding human PI3K catalytic and regulatory subunits were isolated from cDNA libraries using standard molecular biology and PCR cloning techniques. The selected DNA fragments were used to generate baculovirus expression vectors. In particular, full length DNA of each of the p110α, p110β and p110δ Type Ia human PI3K p110 isoforms (EMBL Accession Nos. HSU79143, S67334, Y10055 for p110α, p110β and p110δ respectively) were sub-cloned into a pDEST10 vector (Invitrogen Limited, Fountain Drive, Paisley, UK). The vector is a Gateway-adapted version of Fastbac1 containing a 6-His epitope tag. A truncated form of Type Ib human PI3K p110γ isoform corresponding to amino acid residues 144-1102 (EMBL Accession No. X8336A) and the full length human p85α regulatory subunit (EMBL Accession No. HSP13KIN) were also sub-cloned into pFastBac1 vector containing a 6-His epitope tag. The Type Ia p110 constructs were co-expressed with the p85α regulatory subunit. Following expression in the baculovirus system using standard baculovirus expression techniques, expressed proteins were purified using the His epitope tag using standard purification techniques.
DNA corresponding to amino acids 263 to 380 of human general receptor for phosphoinositides (Grp1) PH domain was isolated from a cDNA library using standard molecular biology and PCR cloning techniques. The resultant DNA fragment was sub-cloned into a pGEX 4T1 E. coli expression vector containing a GST epitope tag (Amersham Pharmacia Biotech, Rainham, Essex, UK) as described by Gray et al., Analytical Biochemistry, 2003, 313: 234-245). The GST-tagged Grp1 PH domain was expressed and purified using standard techniques.
Test compounds were prepared as […] stock solutions in DMSO and diluted into water as required to give a range of final assay concentrations. Aliquots (2 μl) of each compound dilution were placed into a well of a Greiner 384-well low volume (LV) white polystyrene plate (Greiner Bio-one, Brunel Way, Stonehouse, Gloucestershire, UK Catalogue No. 784075). […]
Biotinylated-DiC8-PI(3,4,5)P3 (50 nM; Cell Signals Inc., Catalogue No. 107), recombinant purified GST-Grp1 PH protein (2.5 nM) and AlphaScreen Anti-GST donor and acceptor beads (100 ng; Packard Bioscience Limited, Station Road, Pangbourne, Berkshire, UK, Catalogue No. 6760603M) were added and the assay plates were left for about 5 to 20 hours at room temperature in the dark. The resultant signals arising from laser light excitation at 680 nm were read using a Packard AlphaQuest instrument. […]

Where a name gives a salt, the structure may show the parent alone.

T1 sequence (P42336 whole entry, canonical isoform): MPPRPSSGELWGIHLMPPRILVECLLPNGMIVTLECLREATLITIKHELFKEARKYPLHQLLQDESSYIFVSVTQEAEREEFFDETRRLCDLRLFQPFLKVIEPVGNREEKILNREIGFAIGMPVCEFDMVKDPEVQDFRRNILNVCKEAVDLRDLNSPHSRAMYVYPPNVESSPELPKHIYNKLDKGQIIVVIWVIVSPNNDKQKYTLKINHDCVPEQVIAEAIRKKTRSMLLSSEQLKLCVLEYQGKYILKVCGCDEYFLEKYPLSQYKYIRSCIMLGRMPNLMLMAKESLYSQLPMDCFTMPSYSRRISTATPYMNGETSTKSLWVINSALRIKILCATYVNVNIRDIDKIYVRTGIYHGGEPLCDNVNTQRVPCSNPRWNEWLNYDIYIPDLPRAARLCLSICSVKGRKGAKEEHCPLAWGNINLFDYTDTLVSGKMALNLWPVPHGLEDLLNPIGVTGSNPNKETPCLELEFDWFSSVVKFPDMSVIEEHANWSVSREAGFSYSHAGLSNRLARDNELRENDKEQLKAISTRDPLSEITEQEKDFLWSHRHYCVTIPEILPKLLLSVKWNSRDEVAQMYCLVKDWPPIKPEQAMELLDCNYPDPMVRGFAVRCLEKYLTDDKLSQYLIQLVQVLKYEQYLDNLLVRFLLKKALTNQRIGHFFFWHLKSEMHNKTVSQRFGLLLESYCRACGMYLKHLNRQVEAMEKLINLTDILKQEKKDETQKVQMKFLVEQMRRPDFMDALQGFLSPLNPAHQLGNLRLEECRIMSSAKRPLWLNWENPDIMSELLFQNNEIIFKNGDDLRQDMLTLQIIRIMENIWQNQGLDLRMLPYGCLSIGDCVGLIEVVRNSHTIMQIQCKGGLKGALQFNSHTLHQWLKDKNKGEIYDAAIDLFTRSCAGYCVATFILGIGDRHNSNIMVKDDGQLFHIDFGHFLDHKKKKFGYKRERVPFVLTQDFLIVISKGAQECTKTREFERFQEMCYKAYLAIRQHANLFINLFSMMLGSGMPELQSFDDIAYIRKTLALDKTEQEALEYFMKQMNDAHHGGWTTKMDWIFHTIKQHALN
T1 sequence (P27986 whole entry partner, canonical isoform): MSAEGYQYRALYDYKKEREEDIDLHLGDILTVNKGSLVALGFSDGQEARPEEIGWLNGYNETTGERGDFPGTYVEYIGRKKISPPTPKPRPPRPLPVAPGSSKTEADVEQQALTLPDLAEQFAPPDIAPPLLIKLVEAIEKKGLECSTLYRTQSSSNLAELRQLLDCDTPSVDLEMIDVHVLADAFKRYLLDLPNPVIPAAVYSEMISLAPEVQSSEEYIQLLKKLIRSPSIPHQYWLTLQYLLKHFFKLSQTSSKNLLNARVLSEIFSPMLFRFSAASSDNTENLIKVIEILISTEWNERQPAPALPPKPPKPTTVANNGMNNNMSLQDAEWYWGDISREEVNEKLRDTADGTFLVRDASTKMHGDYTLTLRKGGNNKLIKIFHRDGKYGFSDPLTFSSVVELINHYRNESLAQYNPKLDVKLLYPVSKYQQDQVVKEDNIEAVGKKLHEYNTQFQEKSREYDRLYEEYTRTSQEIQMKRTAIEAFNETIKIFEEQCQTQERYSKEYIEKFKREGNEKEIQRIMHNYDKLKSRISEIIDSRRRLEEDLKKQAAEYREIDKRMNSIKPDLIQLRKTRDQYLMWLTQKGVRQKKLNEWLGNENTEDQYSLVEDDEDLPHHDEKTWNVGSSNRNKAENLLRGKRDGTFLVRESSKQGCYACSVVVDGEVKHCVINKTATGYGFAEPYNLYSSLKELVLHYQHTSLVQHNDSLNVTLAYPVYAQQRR

`CC(=O)Nc1nc(C)c(-c2cnc(Cl)c(NS(=O)(=O)c3ccccc3)c2)s1` [Example 13, N-{5-[6-Chloro-5-(phenylsulfonylamino)pyridin-3-yl]-4-methyl-1,3-thiazol-2-yl}acetamide trifluoroacetate]: the values for the half-maximal inhibitory concentration (IC50) (in assay [1]; on p110α Type Ia human PI3K) were ~0.02 µM and ~0.01 µM, respectively.

For orientation: IC50 means the concentration that gives 50% inhibition.
